In ChEMBL document CHEMBL4219157, “Alkylated/aminated nitroimidazoles and nitroimidazole-7-chloroquinoline conjugates: Synthesis and anti-mycobacterial evaluation” (Bioorg Med Chem Lett, 2018):
In brackets after ≈: the same amount, converted by molar mass.

Assays:
[1] = system: Mycobacterium tuberculosis; assay: Antitubercular activity against Mycobacterium tuberculosis mc2 6230 after 7 days by broth microdilution assay; format: functional; details: mc2 6230, 168 h
J774 = assay: Cytotoxicity against mouse J774 cells assessed as decrease in cell viability after 24 hrs by resazurin based assay; details: J774, 24 h
[2] = Selectivity index, ratio of IC50 for mouse J774 cells to MIC50 for Mycobacterium tuberculosis mc2 6230; format: toxicity; details: read-out: Selectivity Index

## Clc1ccc2c(N3CCNCC3)ccnc2c1
[1]
  MIC50: 92 µg/mL (≈ 371 µM)

## Cc1ncc([N+](=O)[O-])n1CCCN1CCN(c2ccnc3cc(Cl)ccc23)CC1
J774
  IC50: > 100 µg/mL
[1]
  MIC50: 3.8 µg/mL (≈ 9.16 µM)
[2]
  selectivity ratio: > 26.3

## Cc1ncc([N+](=O)[O-])n1CCCN1CCCC1
J774
  IC50: > 100 µg/mL
[1]
  MIC50: 19.3 µg/mL (≈ 81 µM)
[2]
  selectivity ratio: > 5.2

## Cc1ncc([N+](=O)[O-])n1CCCCCN1CCN(c2ccnc3cc(Cl)ccc23)CC1
J774
  IC50: 28.9 µg/mL (≈ 65.2 µM)
[1]
  MIC50: 5.2 µg/mL (≈ 11.7 µM)
[2]
  selectivity ratio: 5.6

## Cc1ncc([N+](=O)[O-])n1CCCCN1CCCCC1
J774
  IC50: > 100 µg/mL
[1]
  MIC50: 19.3 µg/mL (≈ 72.5 µM)
[2]
  selectivity ratio: > 5.2

## Cc1ncc([N+](=O)[O-])n1CCCCCN1CCCC1
J774
  IC50: > 100 µg/mL
[1]
  MIC50: 12.3 µg/mL (≈ 46.2 µM)
[2]
  selectivity ratio: > 8.1

## Cc1ncc([N+](=O)[O-])n1CCCCN1CCCC1
J774
  IC50: > 100 µg/mL
[1]
  MIC50: 12.6 µg/mL (≈ 49.9 µM)
[2]
  selectivity ratio: > 8

## Cc1ncc([N+](=O)[O-])n1CCCCCN1CCCCC1
J774
  IC50: > 100 µg/mL
[1]
  MIC50: 49 µg/mL (≈ 175 µM)
[2]
  selectivity ratio: > 2

## Cc1ncc([N+](=O)[O-])n1CCCCCCN1CCN(c2ccnc3cc(Cl)ccc23)CC1
J774
  IC50: < 0.8 µg/mL
[1]
  MIC50: 1.2 µg/mL (≈ 2.63 µM)
[2]
  selectivity ratio: < 0.66

## Cc1ncc([N+](=O)[O-])n1CCCN1CCCCC1
J774
  IC50: > 100 µg/mL
[1]
  MIC50: > 100 µg/mL

## Cc1ncc([N+](=O)[O-])n1CCCCN1CCOCC1
J774
  IC50: > 100 µg/mL
[1]
  MIC50: 23.1 µg/mL (≈ 86.1 µM)
[2]
  selectivity ratio: > 4.3

## Cc1ncc([N+](=O)[O-])n1CCCCCCBr
J774
  IC50: 69.9 µg/mL (≈ 241 µM)
[1]
  MIC50: 4.9 µg/mL (≈ 16.9 µM)
[2]
  selectivity ratio: 14.1

## Cc1ncc([N+](=O)[O-])n1CCCCBr
J774
  IC50: 61 µg/mL (≈ 233 µM)
[1]
  MIC50: 17.7 µg/mL (≈ 67.5 µM)
[2]
  selectivity ratio: 3.4

## Cc1ncc([N+](=O)[O-])n1CCCCCN1CCOCC1
J774
  IC50: > 100 µg/mL
[1]
  MIC50: > 100 µg/mL

## Cc1ncc([N+](=O)[O-])n1CCCN1CCOCC1
J774
  IC50: > 100 µg/mL
[1]
  MIC50: 18 µg/mL (≈ 70.8 µM)
[2]
  selectivity ratio: > 5.5

## Cc1ncc([N+](=O)[O-])n1CCCBr
J774
  IC50: 54.8 µg/mL (≈ 221 µM)
[1]
  MIC50: 5.3 µg/mL (≈ 21.4 µM)
[2]
  selectivity ratio: 10.3

## Cc1ncc([N+](=O)[O-])n1CCCCCBr
J774
  IC50: 83 µg/mL (≈ 301 µM)
[1]
  MIC50: 13.3 µg/mL (≈ 48.2 µM)
[2]
  selectivity ratio: 6.2

## Cc1ncc([N+](=O)[O-])n1CCCCN1CCN(c2ccnc3cc(Cl)ccc23)CC1
J774
  IC50: > 100 µg/mL
[1]
  MIC50: 2.2 µg/mL (≈ 5.13 µM)
[2]
  selectivity ratio: > 45.3

## NNC(=O)c1ccncc1 [ISONIAZID]
[1]
  MIC50: 0.019 µg/mL (≈ 0.139 µM)
